Patent US20260297542A1, “HERBICIDE RESISTANT PLANTS” (SYNGENTA CROP PROTECTION AG, priority 2023, published 2026)
Residue numbers refer to the chain shown, from its start.

Tests used:
Experiment in all cases: E. coli hemG growth inhibition by herbicide, AtPPO1 variant
Assay type in all cases: cell-based
Conditions in all cases: read-out: percentage growth inhibition
AtPPO1 L464Y = target: T1, AtPPO1 L464Y (Arabidopsis thaliana, UniProt P55826, L464Y)
T1 construct: expressed in transfected cells; host or cells: E. coli BL21(DE3) hemG, pET24a plasmid
T1 sequence (P55826 35-537 L464Y): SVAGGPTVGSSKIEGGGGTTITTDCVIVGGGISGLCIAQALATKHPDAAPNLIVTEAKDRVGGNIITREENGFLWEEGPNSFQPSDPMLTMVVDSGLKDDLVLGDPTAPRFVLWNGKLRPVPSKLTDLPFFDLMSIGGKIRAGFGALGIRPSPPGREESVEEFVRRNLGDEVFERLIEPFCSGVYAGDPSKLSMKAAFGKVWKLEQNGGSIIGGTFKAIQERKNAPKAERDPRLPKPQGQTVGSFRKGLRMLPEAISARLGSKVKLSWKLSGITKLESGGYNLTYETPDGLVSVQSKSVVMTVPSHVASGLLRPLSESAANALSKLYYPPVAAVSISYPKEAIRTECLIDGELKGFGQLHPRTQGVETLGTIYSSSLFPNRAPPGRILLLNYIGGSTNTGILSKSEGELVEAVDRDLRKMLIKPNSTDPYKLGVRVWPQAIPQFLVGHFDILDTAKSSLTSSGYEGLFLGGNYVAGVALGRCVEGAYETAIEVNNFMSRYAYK
Summary of the method: (§1)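 Variant plasmids were transformed into hemG-null BL21(DE3) and precultured 24 h with hematin. Washed cells were diluted 1:100 into Terrific broth containing 0.1 mM IPTG and herbicide (6.25 ppm 0 or E; 0.78 ppm B) or DMSO. After 24 h at 37° C, OD600 gave percent inhibition.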

AtPPO1 K173H = target: T2, AtPPO1 K173H (Arabidopsis thaliana, UniProt P55826, K173H)
T2 construct: expressed in transfected cells; host or cells: E. coli BL21(DE3) hemG (hemG replaced by CmR), pET24a plasmid
T2 sequence (P55826 35-537 K173H): T1 sequence (P55826 35-537 L464Y) with K139H, Y430L
Summary of the method: as §1

AtPPO1 V365L = target: T3, AtPPO1 V365L (Arabidopsis thaliana, UniProt P55826, V365L)
T3 construct: expressed in transfected cells; host or cells: E. coli BL21(DE3) hemG (pET24a, T7 promoter)
T3 sequence (P55826 35-537 V365L): T1 sequence (P55826 35-537 L464Y) with V331L, Y430L
Summary of the method: as §1

AtPPO1 E212Y = target: T4, AtPPO1 E212Y (Arabidopsis thaliana, UniProt P55826, E212Y)
T4 construct: expressed in transfected cells; host or cells: E. coli BL21(DE3) hemG (hemG replaced by CmR), pET24a plasmid
T4 sequence (P55826 35-537 E212Y): T1 sequence (P55826 35-537 L464Y) with E178Y, Y430L
Summary of the method: as §1

SMILES	inhibition at 6.25 ppm (AtPPO1 L464Y) [%]	inhibition at 6.25 ppm (AtPPO1 K173H) [%]	inhibition at 6.25 ppm (AtPPO1 V365L) [%]	inhibition at 6.25 ppm (AtPPO1 E212Y) [%]	inhibition at 0.78 ppm (AtPPO1 L464Y) [%]	inhibition at 0.78 ppm (AtPPO1 K173H) [%]	inhibition at 0.78 ppm (AtPPO1 V365L) [%]	inhibition at 0.78 ppm (AtPPO1 E212Y) [%]
CCOC(=O)[C@]1(C)CC(c2cc(-n3c(=O)n(C)c(=S)n(C)c3=O)c(F)cc2Cl)=NO1 [Herbicide D, ethyl (5S)-3-[2-chloro-5-(3,5-dimethyl-2,6-dioxo-4-thioxo-1,3,5-triazinan-1-yl)-4-fluoro-phenyl]-5-methyl-4H-isoxazole-5-carboxylate]	12	34	55	27				
C#CCN1C(=O)C(F)(F)Oc2cc(F)c(-n3c(=O)n(C)c(=S)n(C)c3=O)cc21 [Herbicide B, trifludimoxazin]					0	29	11	25
CC(C)N(C)S(=O)(=O)NC(=O)c1cc(-n2c(=O)cc(C(F)(F)F)n(C)c2=O)c(F)cc1Cl [Herbicide E, saflufenacil]	5	55	27	65				
